According to patent publication US8242159B2, “1,3-dihydro-5-isobenzofurancarbonitrile derivatives and pharmaceutical composition thereof for the treatment of premature ejaculation” (Dong-A Pharmaceutical. Co., Ltd, priority 2007, dated 2012):

Test system: Male Wistar rats
Test: p-PCA-induced ejaculation in anesthetized rats (ejaculation-delaying effect)
Format: in vivo, rat
Details: for Ratio: Number of responding animals/total animal number: 50 mg/kg oral in 1% HPMC, p-PCA 5 mg/kg i.p. 80 min later, observed 30 min; for Latency: Time to display the ejaculatory response: 50 mg/kg oral, p-PCA 5 mg/kg i.p., mean ± standard deviation of responding rats
Procedure: The compounds prepared in the above examples were evaluated to determine whether they have an effect of delaying ejaculation. The evaluation was carried out using an animal model according to a method described in Yonezawa et al., Life Sci. 2000, 67(25) p 3031-9. Male Wistar rats weighing 240-260 g were used. Each compound was suspended in 1% HPMC, and then administered orally to each animal. After 60 min, the animals were anesthetized and fixed. 20 min later, para-chloroamphetamine (p-PCA) was intraperitoneally administered in a dose of 5 mg/kg in order to induce ejaculation. […] An ejaculatory response was considered to be elicited when rhythmic contraction of bulbocavernosus muscles and semen discharge occurs. Six or more animals were used for each compound. A Fisher's […] test was performed for the comparison of the proportion of responding rats (ejaculated rats) to determine significance of difference between a treatment group and a vehicle control. The time to reach ejaculation was expressed as mean±standard deviation.
Each test compound was administered at a dose of 50 mg/kg. Ejaculation was elicited in all seven animals of a control group.

SMILES	Ratio: Number of responding animals/total animal number	Latency: Time to display the ejaculatory response [s]
COc1ccc(C2(CCCN(C)C)OCc3cc(C#N)ccc32)cc1 (stereo not drawn) [Ex. 1, 1-(4-methoxyphenyl)-1-{3-(dimethylamino)propyl}-1,3-dihydro-5-isobenzofurancarbonitrile]	5/9	1024 ± 256
COc1ccc(C2(CCCN(C)C)OCc3cc(C#N)ccc32)cc1.Cl (stereo not drawn) [Ex. 3, 1-{3-(dimethylamino)propyl}-1-(4-methoxyphenyl)-1,3-dihydro-5-isobenzofurancarbonitrile hydrochloride]	1/6	1234
COc1ccc(C2(CCCn3ccnc3)OCc3cc(C#N)ccc32)cc1 (stereo not drawn) [Ex. 4, 1-{3-(imidazole-1-yl)propyl}-1-(4-methoxyphenyl)-1,3-dihydro-5-isobenzofurancarbonitrile]	4/9	1300 ± 124
COc1ccc(C2(CCCn3ccnc3)OCc3cc(C#N)ccc32)cc1.Cl (stereo not drawn) [Ex. 5, 1-{13-(imidazole-1-yl)propyl}-1-(4-methoxyphenyl)-1,3-dihydro-5-isobenzofurancarbonitrile hydrochloride]	3/7	986 ± 342
COc1ccc(C2(CCn3ccnc3)OCc3cc(C#N)ccc32)cc1 (stereo not drawn) [Ex. 6, 1-{2-(imidazole-1-yl)ethyl}-1-(4-methoxyphenyl)-1,3-dihydro-5-isobenzofurancarbonitrile]	4/7	889 ± 284
COc1ccc(C2(CCn3ccnc3)OCc3cc(C#N)ccc32)cc1.Cl (stereo not drawn) [Ex. 7, 1-{2-(imidazole-1-yl)ethyl}-1-(4-methoxyphenyl)-1,3-dihydro-5-isobenzofurancarbonitrile hydrochloride]	5/9	963 ± 304
COc1ccc(C2(CCCn3cccn3)OCc3cc(C#N)ccc32)cc1 (stereo not drawn) [Ex. 8, 1-(4-methoxyphenyl)-1-{3-(pyrazole-1-yl)propyl}-1,3-dihydro-5-isobenzofurancarbonitrile]	4/9	1230 ± 421
COc1ccc(C2(CCCn3cccn3)OCc3cc(C#N)ccc32)cc1.Cl (stereo not drawn) [Ex. 9, 1-(4-methoxyphenyl)-1-{3-(pyrazole-1-yl)propyl}-1,3-dihydro-5-isobenzofurancarbonitrile hydrochloride]	4/7	950 ± 245
COc1ccc(C2(CCn3cccn3)OCc3cc(C#N)ccc32)cc1 (stereo not drawn) [Ex. 10, 1-(4-methoxyphenyl)-1-{2-(pyrazole-1-yl)ethyl}-1,3-dihydro-5-isobenzofurancarbonitrile]	4/9	889 ± 360
COc1ccc(C2(CCn3cccn3)OCc3cc(C#N)ccc32)cc1.Cl (stereo not drawn) [Ex. 11, 1-(4-methoxyphenyl)-1-{2-(pyrazole-1-yl)ethyl}-1,3-dihydro-5-isobenzofurancarbonitrile hydrochloride]	3/7	974 ± 289
CN(C)CCCC1(c2ccccc2)OCc2cc(C#N)ccc21 (stereo not drawn) [Ex. 12, 1-{3-(dimethylamino)propyl}-1-phenyl-1,3-dihydro-5-isobenzofurancarbonitrile]	4/9	1025 ± 189
CN(C)CCCC1(c2ccccc2)OCc2cc(C#N)ccc21.Cl (stereo not drawn) [Ex. 13, 1-{3-(dimethylamino)propyl}-1-phenyl-1,3-dihydro-5-isobenzofurancarbonitrile hydrochloride]	1/6	327
CN(C)CCC1(c2ccccc2)OCc2cc(C#N)ccc21 (stereo not drawn) [Ex. 14, 1-{2-(dimethylamino)ethyl}-1-phenyl-1,3-dihydro-5-isobenzofurancarbonitrile]	3/7	1032 ± 451
CN(C)CCC1(c2ccccc2)OCc2cc(C#N)ccc21.Cl (stereo not drawn) [Ex. 15, 1-{2-(dimethylamino)ethyl}-1-phenyl-1,3-dihydro-5-isobenzofurancarbonitrile hydrochloride]	4/9	1345 ± 510
N#Cc1ccc2c(c1)COC2(CCCn1ccnc1)c1ccccc1 (stereo not drawn) [Ex. 16, 1-{3-(imidazole-1-yl)propyl}-1-phenyl-1,3-dihydro-5-isobenzofurancarbonitrile]	4/9	856 ± 365
Cl.N#Cc1ccc2c(c1)COC2(CCCn1ccnc1)c1ccccc1 (stereo not drawn) [Ex. 17, 1-{3-(imidazole-1-yl)propyl}-1-phenyl-1,3-dihydro-5-isobenzofurancarbonitrile hydrochloride]	3/6	949 ± 330
N#Cc1ccc2c(c1)COC2(CCn1ccnc1)c1ccccc1 (stereo not drawn) [Ex. 18, 1-{2-(imidazole-1-yl)ethyl}-1-phenyl-1,3-dihydro-5-isobenzofurancarbonitrile]	3/7	691 ± 361
Cl.N#Cc1ccc2c(c1)COC2(CCn1ccnc1)c1ccccc1 (stereo not drawn) [Ex. 19, 1-{2-(imidazole-1-yl)ethyl}-1-phenyl-1,3-dihydro-5-isobenzofurancarbonitrile hydrochloride]	5/9	954 ± 275
N#Cc1ccc2c(c1)COC2(CCn1cccn1)c1ccccc1 (stereo not drawn) [Ex. 20, 1-phenyl-1-{2-(pyrazole-1-yl)ethyl}-1,3-dihydro-5-isobenzofurancarbonitrile]	3/7	978 ± 378
Cl.N#Cc1ccc2c(c1)COC2(CCn1cccn1)c1ccccc1 (stereo not drawn) [Ex. 21, 1-phenyl-1-{2-(pyrazole-1-yl)ethyl}-1,3-dihydro-5-isobenzofurancarbonitrile hydrochloride]	4/7	799 ± 387
Cc1ccc(C2(CCCN(C)C)OCc3cc(C#N)ccc32)cc1 (stereo not drawn) [Ex. 22, 1-{3-(dimethylamino)propyl}-1-(4-tolyl)-1,3-dihydro-5-isobenzofurancarbonitrile]	3/7	830 ± 287
Cc1ccc(C2(CCCN(C)C)OCc3cc(C#N)ccc32)cc1.Cl (stereo not drawn) [Ex. 23, 1-{3-(dimethylamino)propyl}-1-(4-tolyl)-1,3-dihydro-5-isobenzofurancarbonitrile hydrochloride]	4/7	967 ± 274
Cc1ccc(C2(CCN(C)C)OCc3cc(C#N)ccc32)cc1 (stereo not drawn) [Ex. 24, 1-{2-(dimethylamino)ethyl}-1-(4-tolyl)-1,3-dihydro-5-isobenzofurancarbonitrile]	3/7	1021 ± 367
Cc1ccc(C2(CCN(C)C)OCc3cc(C#N)ccc32)cc1.Cl (stereo not drawn) [Ex. 25, 1-{2-(dimethylamino)ethyl}-1-(4-tolyl)-1,3-dihydro-5-isobenzofurancarbonitrile hydrochloride]	4/9	841 ± 254
Cc1ccc(C2(CCCn3ccnc3)OCc3cc(C#N)ccc32)cc1 (stereo not drawn) [Ex. 26, 1-{3-(imidazole-1-yl)propyl}-1-(4-tolyl)-1,3-dihydro-5-isobenzofurancarbonitrile]	4/7	904 ± 304
Cc1ccc(C2(CCCn3ccnc3)OCc3cc(C#N)ccc32)cc1.Cl (stereo not drawn) [Ex. 27, 1-{3-(imidazole-1-yl)propyl}-1-(4-tolyl)-1,3-dihydro-5-isobenzofurancarbonitrile hydrochloride]	3/7	864 ± 257
Cc1ccc(C2(CCn3ccnc3)OCc3cc(C#N)ccc32)cc1 (stereo not drawn) [Ex. 28, 1-{2-(imidazole-1-yl)ethyl}-1-(4-tolyl)-1,3-dihydro-5-isobenzofurancarbonitrile]	3/7	734 ± 451
Cc1ccc(C2(CCn3ccnc3)OCc3cc(C#N)ccc32)cc1.Cl (stereo not drawn) [Ex. 29, 1-{2-(imidazole-1-yl)ethyl}-1-(4-tolyl)-1,3-dihydro-5-isobenzofurancarbonitrile hydrochloride]	5/9	1054 ± 287
Cc1ccc(C2(CCCn3cccn3)OCc3cc(C#N)ccc32)cc1 (stereo not drawn) [Ex. 30, 1-{3-(pyrazole-1-yl)propyl}-1-(4-tolyl)-1,3-dihydro-5-isobenzofurancarbonitrile]	3/7	876 ± 300
Cc1ccc(C2(CCCn3cccn3)OCc3cc(C#N)ccc32)cc1.Cl (stereo not drawn) [Ex. 31, 1-{3-(pyrazole-1-yl)propyl}-1-(4-tolyl)-1,3-dihydro-5-isobenzofurancarbonitrile hydrochloride]	3/9	754 ± 401
